Source: patent publication US11053256B2, “Dihydropyranopyrimidines for the treatment of viral infections” (Janssen Sciences Ireland Unlimited Company, priority 2016, dated 2021)

Tests used:
[1] = molecular target: T1, human TLR7 (Homo sapiens, UniProt Q9NYK1); test: Human TLR7 cellular reporter assay (HEK293, NFkB-luc); assay type: cell-based; details: HEK293 cells transiently transfected with TLR7 and NFkB-luc; 6 hours incubation; lowest effective concentration
T1 construct: expressed in transfected cells; host or cells: HEK293
T1 sequence (Q9NYK1 27-1049): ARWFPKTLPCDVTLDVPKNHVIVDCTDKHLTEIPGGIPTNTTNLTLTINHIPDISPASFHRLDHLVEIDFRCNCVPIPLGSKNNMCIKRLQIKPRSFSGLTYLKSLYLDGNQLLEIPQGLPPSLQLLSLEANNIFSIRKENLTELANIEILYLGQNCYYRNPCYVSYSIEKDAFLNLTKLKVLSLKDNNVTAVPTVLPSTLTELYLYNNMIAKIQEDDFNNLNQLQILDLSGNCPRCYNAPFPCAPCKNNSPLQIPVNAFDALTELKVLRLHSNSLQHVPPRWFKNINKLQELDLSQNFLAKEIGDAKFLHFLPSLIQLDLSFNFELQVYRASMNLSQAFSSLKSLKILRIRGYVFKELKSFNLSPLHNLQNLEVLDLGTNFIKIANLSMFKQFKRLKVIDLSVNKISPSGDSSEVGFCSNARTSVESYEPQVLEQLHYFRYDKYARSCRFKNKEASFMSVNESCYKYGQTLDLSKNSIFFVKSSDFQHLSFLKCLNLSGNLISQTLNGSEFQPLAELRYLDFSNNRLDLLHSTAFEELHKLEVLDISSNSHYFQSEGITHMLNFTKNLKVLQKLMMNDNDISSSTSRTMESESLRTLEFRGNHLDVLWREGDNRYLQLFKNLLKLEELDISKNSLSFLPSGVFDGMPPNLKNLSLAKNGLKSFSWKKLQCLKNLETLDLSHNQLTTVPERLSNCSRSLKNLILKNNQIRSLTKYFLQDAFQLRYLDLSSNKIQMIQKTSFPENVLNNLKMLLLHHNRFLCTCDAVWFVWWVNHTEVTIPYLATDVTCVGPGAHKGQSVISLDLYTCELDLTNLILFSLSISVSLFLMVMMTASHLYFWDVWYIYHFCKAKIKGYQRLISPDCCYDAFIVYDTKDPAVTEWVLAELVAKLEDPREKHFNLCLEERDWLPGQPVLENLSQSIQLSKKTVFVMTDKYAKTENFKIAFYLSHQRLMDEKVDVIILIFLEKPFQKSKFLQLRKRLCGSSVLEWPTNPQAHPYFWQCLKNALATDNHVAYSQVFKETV
Method: (§1) Assessment of human TLR7 and human TLR8 activity. The ability of compounds to activate human TLR7 and/or TLR8 was assessed in a cellular reporter assay using HEK293 cells transiently transfected with a TLR7 or TLR8 expression vector and NFkB-luc reporter construct.
(§2) Briefly, HEK293 cells were grown in culture medium (DMEM supplemented with 10% FCS and 2 mM glutamine). For transfection of cells in 15 cm dishes, cells were detached with Trypsin-EDTA, transfected with a mix of CMV-TLR7 or TLR8 plasmid (1700 ng), NFkB-luc plasmid (850 ng) and a transfection reagent and incubated for 48 h at 37° C. in a humidified 5% CO2 atmosphere. Transfected cells were then washed in PBS, detached with Trypsin-EDTA and resuspended in medium to a density of 1.25×10^5 cells/mL. Forty microliters of cells were then dispensed into each well in 384-well plates, where 200 nL of compound in 100% DMSO was already present. Following 6 hours incubation at 37° C., 5% CO2, the luciferase activity was determined by adding 15 μL of Steady Lite Plus substrate (Perkin Elmer) to each well and readout performed on a ViewLux ultraHTS microplate imager (Perkin Elmer). Dose response curves were generated from measurements performed in quadruplicates. Lowest effective concentrations (LEC) values, defined as the concentration that induces an effect which is at least two fold above the standard deviation of the assay, were determined for each compound.

[2] = molecular target: T2, human TLR8 (Homo sapiens, UniProt Q9NR97); test: Human TLR8 cellular reporter assay (HEK293, NFkB-luc); assay type: cell-based; details: HEK293 cells transiently transfected with TLR8 and NFkB-luc; 6 hours incubation; lowest effective concentration
T2 construct: expressed in transfected cells; host or cells: HEK293
T2 sequence (Q9NR97 27-1041): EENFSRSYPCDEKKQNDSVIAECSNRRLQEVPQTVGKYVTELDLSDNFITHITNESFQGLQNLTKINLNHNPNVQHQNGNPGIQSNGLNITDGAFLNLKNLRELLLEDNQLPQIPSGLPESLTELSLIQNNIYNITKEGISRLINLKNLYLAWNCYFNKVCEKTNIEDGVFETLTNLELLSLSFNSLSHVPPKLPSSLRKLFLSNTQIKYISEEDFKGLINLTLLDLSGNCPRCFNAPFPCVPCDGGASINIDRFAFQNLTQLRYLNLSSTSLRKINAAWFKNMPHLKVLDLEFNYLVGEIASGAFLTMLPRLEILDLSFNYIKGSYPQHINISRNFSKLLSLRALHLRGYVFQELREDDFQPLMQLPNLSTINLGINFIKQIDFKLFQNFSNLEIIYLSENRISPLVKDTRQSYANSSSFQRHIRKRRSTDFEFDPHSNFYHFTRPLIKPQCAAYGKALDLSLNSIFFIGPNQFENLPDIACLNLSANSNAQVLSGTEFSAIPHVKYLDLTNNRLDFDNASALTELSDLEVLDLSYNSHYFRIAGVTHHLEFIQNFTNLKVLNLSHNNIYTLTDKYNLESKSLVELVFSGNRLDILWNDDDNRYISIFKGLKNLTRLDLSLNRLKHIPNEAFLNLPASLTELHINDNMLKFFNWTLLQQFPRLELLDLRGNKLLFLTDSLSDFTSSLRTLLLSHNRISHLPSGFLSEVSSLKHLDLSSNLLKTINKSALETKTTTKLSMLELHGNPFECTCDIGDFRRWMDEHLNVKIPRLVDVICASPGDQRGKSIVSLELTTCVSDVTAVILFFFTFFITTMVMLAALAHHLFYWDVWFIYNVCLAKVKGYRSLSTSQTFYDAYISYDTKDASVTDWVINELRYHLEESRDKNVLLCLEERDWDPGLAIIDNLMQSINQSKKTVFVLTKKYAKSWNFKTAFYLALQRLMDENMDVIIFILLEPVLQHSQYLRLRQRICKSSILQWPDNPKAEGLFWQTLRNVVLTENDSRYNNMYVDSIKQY
Method: as §1, §2

Row | Human TLR 7 (LEC) [1] [µM] | Human TLR 8 (LEC) [2] [µM] | Compound
1 | 14.8 | 1.0 | CCCCNc1nc(N)nc2c1COCC2 [Compound 3, N^4-butyl-7,8-dihydro-5H-pyrano[4,3-d]pyrimidine-2,4-diamine]
2 | 4.7 | 0.5 | CCCCNc1nc(N)nc2c1CCOC2 [Compound 7, N^4-butyl-5,8-dihydro-6H-pyrano[3,4-d]pyrimidine-2,4-diamine]

Continued, compound first:

Row | Compound | Human TLR 7 (LEC) [1] [µM] | Human TLR 8 (LEC) [2] [µM]
3 | CCCCNc1nc(N)nc2c1OCCC2 [Compound 13, N^4-butyl-7,8-dihydro-6H-pyrano[3,2-d]pyrimidine-2,4-diamine] | 0.8 | 0.1
4 | CCCC[C@H](CO)Nc1nc(N)nc2c1OCCC2 [Compound 14, (2R)-2-[(2-amino-7,8-dihydro-6H-pyrano[3,2-d]pyrimidin-4-yl)amino]hexan-1-ol] | 32.5 | 0.1
5 | CCCC[C@H](CO)Nc1nc(N)nc2c1COCC2 [Compound 4, (2R)-2-[(2-amino-7,8-dihydro-5H-pyrano[4,3-d]pyrimidin-4-yl)amino]hexan-1-ol] | >100 | 1.3
6 | CCCC[C@H](CO)Nc1nc(N)nc2c1CCOC2 [Compound 8, (2R)-2-[(2-amino-5,8-dihydro-6H-pyrano[3,4-d]pyrimidin-4-yl)amino]hexan-1-ol] | >100 | 1.4
